Data published in patent US9611501B2, “Method and device for rapid detection of bacterial antibiotic resistance/susceptibility” (priority 2009, dated 2017).
Converted amounts (≈) assume the structure as drawn.

What was measured:
[1] = tested on: MSSA (Sanger 476) and MRSA (MW2) strains; assay: Single-channel flow cell, immobilized cells under shear and lysostaphin stress with oxacillin, Sytox green staining; type: cell-based, Staphylococcus aureus; conditions: 10 μg/mL oxacillin, 0.6 ng/mL lysostaphin, ~4200 s^-1 shear rate for 15 mins after 40 min pretreatment with lysostaphin and shear; 0.5 μM Sytox green
Method: The Staphylococcus aureus (MRSA strain MW2 and MSSA strain Sanger 476) were grown to log phase in Mueller-Hinton broth with 2% sodium chloride (MH2) and then immobilized on epoxide slides, which is a non-specific method for immobilizing bacteria and can be used instead of the adhesin mechanism. To immobilize the bacteria, 100 μL of culture was placed on the epoxide slide (Super-epoxy II, Telechem International) and incubated at 37° C. for 45 min in a humid environment. The immobilized cells were briefly rinsed with water and Block-it buffer (Telechem International) to quench any remaining un-reacted epoxide bonds.
On two separate slides, MSSA (Sanger 476) and MRSA (MW2) strains were immobilized. The cells were assembled in channels of ˜300 μm width and stained with 0.5 μM Sytox green in MH2. The immobilized cells were stressed with 0.6 ng/mL lysostaphin, ˜4200 s^−1 shear rate, and 10 μg/mL oxacillin for 15 mins after a 40 min pretreatment with lysostaphin and shear alone. The lysostaphin concentration was chosen to be lower than the MIC (˜1 ng/mL).

[2] = tested on: MRSA (MW2); assay: Oxacillin MIC quoted for the flow cell experiment; type: cell-based; conditions: Staphylococcus aureus
[3] = tested on: Sanger 476 methicillin sensitive cells; assay: 4-channel flow cell, Sytox Green fluorescence of immobilized cells; type: cell-based, Staphylococcus aureus; conditions: flow rate 1 mL/min, 0.5 μM Sytox Green
Method: (§1) This 4-channel arrangement was used to test a single strain of bacteria in the presence or absence of chemical stress (e.g., lysostaphin). The flow rate used in the channels was 1 mL/min and 0.5 μM Sytox Green was used to stain damaged or dying cells.
(§2) In each experiment, bacteria in two channels were exposed to 0.7 ng/mL lysostaphin (lyso) in the presence or absence of the antibiotic oxacillin (oxa; 50 μg/mL). The four experimental groups are as follows: (i) control (no oxa; no lyso), (ii) lyso only; (iii) oxa only, and (iv) lyso and oxa together.

[4] = tested on: MW2 methicillin resistant cells; assay: as above; type: cell-based, Staphylococcus aureus; conditions: oxacillin 50 μg/mL or lysostaphin 0.7 ng/mL alone, flow rate 1 mL/min, 0.5 μM Sytox Green
Method: as §1, §2

[5] = tested on: MSSA (Sanger 476); assay: Oxacillin MIC quoted for the flow cell experiment; type: cell-based; conditions: Staphylococcus aureus
[6] = tested on: strain MW2; assay: Classical microdilution broth MIC of lysostaphin; type: cell-based, Staphylococcus aureus; conditions: MHB, 5×10^5 CFU/mL, overnight incubation at 37° C.
Source text: (§3) A classical microdilution broth method was used to determine the lysostaphin minimum inhibitory concentrations for strains MW2 and Sanger 476 (Jones, R. N., et al. Manual of clinical microbiology, A. Balows, J. W. J. Hausler, and H. J. Shadomy, Editors. 1985, American Society for Microbiology: Washington D.C. p. 972-977). Briefly, logarithmic-phase bacteria were cultivated in Mueller-Hinton cation-adjusted broth (MHB) and adjusted to a concentration of 1×10^6 CFU/mL. Sterile microtiter plates containing 100 μl of lysostaphin diluted in MHB were inoculated with 100 μl of the bacterial suspension to yield 5×10^5 CFU/mL. After overnight incubation at 37° C. overnight, the MIC for both strains was 0.06 μg/mL.

[7] = tested on: strain Sanger 476; assay: Classical microdilution broth MIC of lysostaphin; type: cell-based, Staphylococcus aureus; conditions: MHB, 5×10^5 CFU/mL, overnight incubation at 37° C.
Source text: as §3

[8] = tested on: Staphylococcus aureus; assay: Lysostaphin MIC quoted for the flow cell experiment; type: cell-based; conditions: strain not stated; quoted to justify 0.6 ng/mL lysostaphin

Row | Compound | cell death, MSSA compared with MRSA [1] | MIC [2] | time point at which fluorescence was increased ([3]; oxacillin 50 μg/mL with or without 0.7 ng/mL lysostaphin) | fluorescence compared to control MW2 cells [4] | MIC [5] | minimum inhibitory concentration (MIC) [6] | minimum inhibitory concentration (MIC) [7] | level of fluorescence compared with the control channel ([3]; 0.7 ng/mL lysostaphin) | MIC [8]
1 | Cc1onc(-c2ccccc2)c1C(=O)N[C@@H]1C(=O)N2[C@@H]1SC(C)(C)[C@@H]2C(=O)O [oxacillin] | More MSSA cells died during the course of the experiment than MRSA cells | > 16 µg/mL | approximately 20 min | no substantial increase | 0.5 µg/mL (≈ 1.25 µM) |  |  |  | 
2 | lysostaphin |  |  |  | small increase |  | 0.06 µg/mL | 0.06 µg/mL | not substantially different | ~0.001 µg/mL
